Measurements from the supplement of paper PMC10307832.

How the values were obtained:
Experiment in all cases: relative viability (nuclei count vs DMSO), 5 days (fraction); higher = more cells survive
Seliciclib + Linsitinib = compound: CC[C@H](CO)Nc1nc(NCc2ccccc2)c2ncn(C(C)C)c2n1 [Seliciclib] + C[C@]1(O)C[C@@H](c2nc(-c3ccc4ccc(-c5ccccc5)nc4c3)c3c(N)nccn32)C1 [Linsitinib] (partner 1 µM)
Procedure, shortened: (§1)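 A single step with final 0.05% Triton X-100, 1% formaldehyde and 1 ug/ml Hoechst fixed the cells and stained nuclei 5 days after treatment. Lung cancer cell lines in 1536-well plates had been treated by pin tool the day after seeding with one drug alone or a fixed anchor-drug dose plus five library-drug doses (not always all listed) in √10 steps, and nuclei were counted on 4× images. Relative viability is the ratio of nuclei in treated wells to nuclei in vehicle wells, taken as the median of duplicate plates.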

Seliciclib + Pictilisib = compound: CC[C@H](CO)Nc1nc(NCc2ccccc2)c2ncn(C(C)C)c2n1 [Seliciclib] + CS(=O)(=O)N1CCN(Cc2cc3nc(-c4cccc5[nH]ncc45)nc(N4CCOCC4)c3s2)CC1 [Pictilisib] (partner 1 µM)
Procedure, shortened: as §1

Seliciclib + Lapatinib = compound: CC[C@H](CO)Nc1nc(NCc2ccccc2)c2ncn(C(C)C)c2n1 [Seliciclib] + CS(=O)(=O)CCNCc1ccc(-c2ccc3ncnc(Nc4ccc(OCc5cccc(F)c5)c(Cl)c4)c3c2)o1 [Lapatinib] (partner 2 µM)
Procedure, shortened: as §1

Seliciclib + Bortezomib = compound: CC[C@H](CO)Nc1nc(NCc2ccccc2)c2ncn(C(C)C)c2n1 [Seliciclib] + CC(C)C[C@H](NC(=O)[C@H](Cc1ccccc1)NC(=O)c1cnccn1)B(O)O [Bortezomib] (partner 0.002 µM)
Procedure, shortened: as §1

Seliciclib + Crizotinib = compound: CC[C@H](CO)Nc1nc(NCc2ccccc2)c2ncn(C(C)C)c2n1 [Seliciclib] + C[C@@H](Oc1cc(-c2cnn(C3CCNCC3)c2)cnc1N)c1c(Cl)ccc(F)c1Cl [Crizotinib] (partner 1 µM)
Procedure, shortened: as §1

Seliciclib + AZD7762 = compound: CC[C@H](CO)Nc1nc(NCc2ccccc2)c2ncn(C(C)C)c2n1 [Seliciclib] + NC(=O)Nc1cc(-c2cccc(F)c2)sc1C(=O)N[C@H]1CCCNC1 [AZD7762] (partner 0.2 µM)
Procedure, shortened: as §1

Seliciclib + Alpelisib = compound: CC[C@H](CO)Nc1nc(NCc2ccccc2)c2ncn(C(C)C)c2n1 [Seliciclib] + Cc1nc(NC(=O)N2CCC[C@H]2C(N)=O)sc1-c1ccnc(C(C)(C)C(F)(F)F)c1 [Alpelisib] (partner 2 µM)
Procedure, shortened: as §1

Seliciclib + Olaparib = compound: CC[C@H](CO)Nc1nc(NCc2ccccc2)c2ncn(C(C)C)c2n1 [Seliciclib] + O=C(c1cc(Cc2n[nH]c(=O)c3ccccc23)ccc1F)N1CCN(C(=O)C2CC2)CC1 [Olaparib] (partner 8 µM)
Procedure, shortened: as §1

Seliciclib + Navitoclax = compound: CC[C@H](CO)Nc1nc(NCc2ccccc2)c2ncn(C(C)C)c2n1 [Seliciclib] + CC1(C)CCC(c2ccc(Cl)cc2)=C(CN2CCN(c3ccc(C(=O)NS(=O)(=O)c4ccc(N[C@H](CCN5CCOCC5)CSc5ccccc5)c(S(=O)(=O)C(F)(F)F)c4)cc3)CC2)C1 [Navitoclax] (partner 0.5 µM)
Procedure, shortened: as §1

Seliciclib + Foretinib = compound: CC[C@H](CO)Nc1nc(NCc2ccccc2)c2ncn(C(C)C)c2n1 [Seliciclib] + COc1cc2c(Oc3ccc(NC(=O)C4(C(=O)Nc5ccc(F)cc5)CC4)cc3F)ccnc2cc1OCCCN1CCOCC1 [Foretinib] (partner 0.25 µM)
Procedure, shortened: as §1

Seliciclib = compound: CC[C@H](CO)Nc1nc(NCc2ccccc2)c2ncn(C(C)C)c2n1 [Seliciclib]
Procedure, shortened: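 MetaXpress counted nuclei in 4× images of lung cancer cell lines that had been fixed, permeabilised and Hoechst-stained in one step. Before that, cells in 1536-well plates were kept overnight at 37 °C, pinned with five √10-spaced library-drug doses on vehicle-anchored plates, and cultured 5 days without medium change. Viability takes treated-well nuclei over vehicle-well nuclei and uses the median across plates. Plates were accepted only at control CV below 25% and at least one doubling.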

Seliciclib + Tozasertib = compound: CC[C@H](CO)Nc1nc(NCc2ccccc2)c2ncn(C(C)C)c2n1 [Seliciclib] + Cc1cc(Nc2cc(N3CCN(C)CC3)nc(Sc3ccc(NC(=O)C4CC4)cc3)n2)n[nH]1 [Tozasertib] (partner 0.1 µM)
Procedure, shortened: as §1

Seliciclib + Dasatinib = compound: CC[C@H](CO)Nc1nc(NCc2ccccc2)c2ncn(C(C)C)c2n1 [Seliciclib] + Cc1nc(Nc2ncc(C(=O)Nc3c(C)cccc3Cl)s2)cc(N2CCN(CCO)CC2)n1 [Dasatinib] (partner 0.075 µM)
Procedure, shortened: as §1

Seliciclib + Luminespib = compound: CC[C@H](CO)Nc1nc(NCc2ccccc2)c2ncn(C(C)C)c2n1 [Seliciclib] + CCNC(=O)c1noc(-c2cc(C(C)C)c(O)cc2O)c1-c1ccc(CN2CCOCC2)cc1 [Luminespib] (partner 0.01 µM)
Procedure, shortened: as §1

Seliciclib + Phenformin = compound: CC[C@H](CO)Nc1nc(NCc2ccccc2)c2ncn(C(C)C)c2n1 [Seliciclib] + N=C(N)NC(=N)NCCc1ccccc1 [Phenformin] (partner 250 µM)
Procedure, shortened: as §1

Seliciclib + OSI-027 = compound: CC[C@H](CO)Nc1nc(NCc2ccccc2)c2ncn(C(C)C)c2n1 [Seliciclib] + COc1cccc2cc(-c3nc([C@H]4CC[C@H](C(=O)O)CC4)n4ncnc(N)c34)[nH]c12 [OSI-027] (partner 0.5 µM)
Procedure, shortened: as §1

Work on NCI-H1703 yielded a relative viability (Seliciclib + Linsitinib; first compound 0.08 µM) of 0.675, a relative viability (Seliciclib + Linsitinib; first compound 0.253 µM) of 0.869 and a relative viability (Seliciclib + Linsitinib; first compound 0.8 µM) of 0.767. The relative viability (Seliciclib + Linsitinib; first compound 2.53 µM) was 0.989, the relative viability (Seliciclib + Linsitinib; first compound 8 µM) was 0.712 and the relative viability (Seliciclib + Pictilisib; first compound 0.08 µM) was 0.252. For the same cell line, the relative viability (Seliciclib + Pictilisib; first compound 0.253 µM) was 0.234, the relative viability (Seliciclib + Pictilisib; first compound 0.8 µM) was 0.26 and the relative viability (Seliciclib + Pictilisib; first compound 2.53 µM) was 0.225. It also gave a relative viability (Seliciclib + Pictilisib; first compound 8 µM) of 0.241, a relative viability (Seliciclib + Lapatinib; first compound 0.08 µM) of 1.07 and a relative viability (Seliciclib + Lapatinib; first compound 0.253 µM) of 0.861. It also gave a relative viability (Seliciclib + Lapatinib; first compound 0.8 µM) of 1.03, a relative viability (Seliciclib + Lapatinib; first compound 2.53 µM) of 1.14 and a relative viability (Seliciclib + Lapatinib; first compound 8 µM) of 0.846. For the same cell line, the relative viability (Seliciclib + Bortezomib; first compound 0.08 µM) was 0.416, the relative viability (Seliciclib + Bortezomib; first compound 0.253 µM) was 0.297 and the relative viability (Seliciclib + Bortezomib; first compound 0.8 µM) was 0.371. For the same cell line, the relative viability (Seliciclib + Bortezomib; first compound 2.53 µM) was 0.353, the relative viability (Seliciclib + Bortezomib; first compound 8 µM) was 0.249 and the relative viability (Seliciclib + Crizotinib; first compound 0.08 µM) was 0.643. For the same cell line, the relative viability (Seliciclib + Crizotinib; first compound 0.253 µM) was 0.609, the relative viability (Seliciclib + Crizotinib; first compound 0.8 µM) was 0.563 and the relative viability (Seliciclib + Crizotinib; first compound 2.53 µM) was 0.635. The relative viability (Seliciclib + Crizotinib; first compound 8 µM) was 0.556, the relative viability (Seliciclib + AZD7762; first compound 0.08 µM) was 0.132 and the relative viability (Seliciclib + AZD7762; first compound 0.253 µM) was 0.147. For the same cell line, the relative viability (Seliciclib + AZD7762; first compound 0.8 µM) was 0.135, the relative viability (Seliciclib + AZD7762; first compound 2.53 µM) was 0.126 and the relative viability (Seliciclib + AZD7762; first compound 8 µM) was 0.111. For the same cell line, the relative viability (Seliciclib + Alpelisib; first compound 0.08 µM) was 0.322, the relative viability (Seliciclib + Alpelisib; first compound 0.253 µM) was 0.421 and the relative viability (Seliciclib + Alpelisib; first compound 0.8 µM) was 0.288. It also gave a relative viability (Seliciclib + Alpelisib; first compound 2.53 µM) of 0.354, a relative viability (Seliciclib + Alpelisib; first compound 8 µM) of 0.229 and a relative viability (Seliciclib + Olaparib; first compound 0.08 µM) of 0.467. The relative viability (Seliciclib + Olaparib; first compound 0.253 µM) was 0.54, the relative viability (Seliciclib + Olaparib; first compound 0.8 µM) was 0.528 and the relative viability (Seliciclib + Olaparib; first compound 2.53 µM) was 0.439. The relative viability (Seliciclib + Olaparib; first compound 8 µM) was 0.352, the relative viability (Seliciclib + Navitoclax; first compound 0.08 µM) was 0.957 and the relative viability (Seliciclib + Navitoclax; first compound 0.253 µM) was 0.862. The relative viability (Seliciclib + Navitoclax; first compound 0.8 µM) was 1.05, the relative viability (Seliciclib + Navitoclax; first compound 2.53 µM) was 1.21 and the relative viability (Seliciclib + Navitoclax; first compound 8 µM) was 0.87. For the same cell line, the relative viability (Seliciclib + Foretinib; first compound 0.08 µM) was 0.352, the relative viability (Seliciclib + Foretinib; first compound 0.253 µM) was 0.362 and the relative viability (Seliciclib + Foretinib; first compound 0.8 µM) was 0.323. It also gave a relative viability (Seliciclib + Foretinib; first compound 2.53 µM) of 0.298, a relative viability (Seliciclib + Foretinib; first compound 8 µM) of 0.342 and a relative viability (Seliciclib; 0.08 µM) of 0.947. It also gave a relative viability (Seliciclib; 0.253 µM) of 0.905, a relative viability (Seliciclib; 0.8 µM) of 1.04 and a relative viability (Seliciclib; 2.53 µM) of 0.951. For the same cell line, the relative viability (Seliciclib; 8 µM) was 0.965.
NCI-H1623 showed a relative viability (Seliciclib + Tozasertib; first compound 0.08 µM) of 0.414, a relative viability (Seliciclib + Tozasertib; first compound 0.253 µM) of 0.317 and a relative viability (Seliciclib + Tozasertib; first compound 0.8 µM) of 0.363. For the same cell line, the relative viability (Seliciclib + Tozasertib; first compound 2.53 µM) was 0.418, the relative viability (Seliciclib + Tozasertib; first compound 8 µM) was 0.414 and the relative viability (Seliciclib + Dasatinib; first compound 0.08 µM) was 0.562. It also gave a relative viability (Seliciclib + Dasatinib; first compound 0.253 µM) of 0.479, a relative viability (Seliciclib + Dasatinib; first compound 0.8 µM) of 0.498 and a relative viability (Seliciclib + Dasatinib; first compound 2.53 µM) of 0.53. It also gave a relative viability (Seliciclib + Dasatinib; first compound 8 µM) of 0.603, a relative viability (Seliciclib + Luminespib; first compound 0.08 µM) of 0.66 and a relative viability (Seliciclib + Luminespib; first compound 0.253 µM) of 0.367. It also gave a relative viability (Seliciclib + Luminespib; first compound 0.8 µM) of 0.568, a relative viability (Seliciclib + Luminespib; first compound 2.53 µM) of 0.558 and a relative viability (Seliciclib + Luminespib; first compound 8 µM) of 0.512. It also gave a relative viability (Seliciclib + Phenformin; first compound 0.08 µM) of 0.609, a relative viability (Seliciclib + Phenformin; first compound 0.253 µM) of 0.545 and a relative viability (Seliciclib + Phenformin; first compound 0.8 µM) of 0.502. The relative viability (Seliciclib + Phenformin; first compound 2.53 µM) was 0.507, the relative viability (Seliciclib + Phenformin; first compound 8 µM) was 0.538 and the relative viability (Seliciclib + OSI-027; first compound 0.08 µM) was 0.425. It also gave a relative viability (Seliciclib + OSI-027; first compound 0.253 µM) of 0.449, a relative viability (Seliciclib + OSI-027; first compound 0.8 µM) of 0.396 and a relative viability (Seliciclib + OSI-027; first compound 2.53 µM) of 0.415. The relative viability (Seliciclib + OSI-027; first compound 8 µM) was 0.415, the relative viability (Seliciclib + Foretinib; first compound 0.08 µM) was 0.91 and the relative viability (Seliciclib + Foretinib; first compound 0.253 µM) was 0.773. For the same cell line, the relative viability (Seliciclib + Foretinib; first compound 0.8 µM) was 0.716, the relative viability (Seliciclib + Foretinib; first compound 2.53 µM) was 0.754 and the relative viability (Seliciclib + Foretinib; first compound 8 µM) was 0.864. It also gave a relative viability (Seliciclib; 0.08 µM) of 0.968, a relative viability (Seliciclib; 0.253 µM) of 0.867 and a relative viability (Seliciclib; 0.8 µM) of 0.868. For the same cell line, the relative viability (Seliciclib; 2.53 µM) was 1.01 and the relative viability (Seliciclib; 8 µM) was 0.81.
